Target: chimeric protein STE2-β₂AR (Homo sapiens, UniProt P07550)
Details: (125I)-CYP 20 pM, competitor 10⁻⁹ M to 10⁻³ M, 37°C one hour, TNE

CNC[C@H](O)c1ccc(O)c(O)c1 [epinephrine]
inhibition efficiency order: alprenolol > isoproterenol > epinephrine
